The source of these data is patent US9656945B2, “3-acyl-ingenols II” (LEO LABORATORIES LIMITED, priority 2010, dated 2017).

SMILES strings stand for the structures. Read-outs that look alike come from different tables or passages of the source.

Format in all cases: cell-based
Test [1] relates to HeLa cells (ATCC CCL-002). The test can be described thus: Necrosis assay. The following applies: Homo sapiens, 0.5 h, read-out: HeLa necrosis EC50 range. The protocol:
HeLa cells (ATCC CCL-002) were grown in minimal essential medium (Invitrogen catalog no. 42360) containing 10% fetal bovine serum, 100 IU/ml penicillin and 100 μg/ml streptomycin. 4,000-6,000 cells were seeded into 96-well black ViewPlates-plates, clear bottom, (Perkin Elmer) in 100 μl medium and incubated overnight. Compounds were dissolved and pre-diluted in DMSO in 96-well polypropylene plates (Greiner) in a concentration range of 15 μM to 600 μM. At the time of the experiment cell plates were placed on heating blocks at 37° C., medium was removed and 40 μl fresh, pre-warmed medium was added per well. Cells were incubated for 15 min before addition of compounds. In parallel, 3 μl of compounds were diluted with 197 μl growth medium on a Tecan freedom-EVO pipetting station using 250 μl/s pipetting speed, in order to ensure effective mixing of the highly concentrated compound solutions with the aqueous phase. These pre-dilution plates were then equilibrated on heating blocks at 37° C. for 10 min. 80 μl pre-diluted compound were transferred manually to the corresponding wells containing HeLa cells yielding compound concentrations of 10 μM to 400 μM. Control conditions were 1% DMSO in growth medium (100% viability) and 400 μM ingenol mebutate in growth medium (0% viability). Plates were incubated on the heating blocks at 37° C. for 30 min. At the end of the incubation 10 μl PrestoBlue reagent (Invitrogen) were added to each well, plates were sealed with black seal, followed by incubation at 37° C. for 10 min with gentle shaking (150 rpm). Subsequently, plates were placed at room temperature for 20-30 min. Plates were read immediately after on an Envision Fluorescence reader (Perkin Elmer) with excitation at 535 nm and emission at 630 nm. Test compound titration curves were fitted to a four-parameter sigmoidal curve after normalizing the effect of the test compound to the effect of the positive control (4 10^−4 M PEP0005/ingenol mebutate). AbsEC50 denotes the concentration of test compound producing 50% effect.

Test [2] relates to PMN's (polymorphonuclear leukocytes). Nature of the test: Neutrophil oxidative burst assay. The following applies: Leukocyte, 40 min, read-out: Neutrophil oxidative burst Rel EC50 range. How it is done:
PMN's (polymorphonuclear leukocytes) were isolated and purified from fresh buffy coats by sequential sedimentation, density centrifugation and lysis of contaminating erythrocytes. Buffy coats were incubated with 2% methocel for 30-45 min to differentially sediment red blood cells. The leukocyte-rich supernatant was transferred to lymphoprep tubes to remove mononuclear cells by density centrifugation (400×g, 30 min). The pellet was resuspended and any remaining erythrocytes lysed using 0.2% NaCl for 30 sec before restoring isotonicity by the addition of 1.2% NaCl. This step was repeated until the cell pellet appears relatively free of red blood cells. Cells were resuspended in DPBS (Dulbecco's Phosphate Buffered Saline) (w.o. Ca^2+, Mg^2+) and the concentration adjusted to 1.4×10^6 cells/ml in HBSS (Hanks Balanced Salt solution) (w Ca^2+, Mg^2+) containing 0.1% BSA (Bovine Serum Albumin) and 5 mM glucose just prior to assay initiation. Titrated reference and test compounds were pre-mixed with HE (Hydroethidine) (10 μM final assay concentration) before addition to 96-well plates containing 2.5×10^5 cells. Following 40 min incubation at RT, changes in the respiratory burst was estimated by measuring fluorescence at 579 nm (excitation: 485 nm) using an Envision plate reader.
Test compound titration curves were fitted to a four-parameter sigmoidal curve after normalizing the effect of the test compound to the effect of the positive control (5×10^−7 M PEP0005). Rel EC50 denotes the concentration of test compound producing an effect that is midway between the fitted top and bottom. Abs EC50 is the concentration of test compound that provokes a response corresponding to 50% of the maximal effect associated with the positive control (5×10^−7 M PEP0005).

For test [3], the system named is Primary human epidermal keratinocytes, HeKa. Nature of the test: HeKa cytokine release (IL-8) assay. How it is done: Primary human epidermal keratinocytes, HeKa, were seeded (10.000 cells/well) in 96-well plates the day before the assay. Test compounds were diluted in DMSO (dimethyl sulfoxide) and further diluted in assay medium and pipetted into wells of 96 well-plates containing HeKa cells. The plates were incubated for 6 h at 37° C. in humidified air with 5% CO2. Plates are centrifuged briefly to spin down cells at 4° C., the supernatant was removed and analysed by Meso Scale Discovery (MSD) 4-spot cytokine assay (Pro-inflammatory II Ultra Sensitive kit, MSD, MD, USA). The MSD assay employs a sandwich immunoassay format where capture antibodies were coated in a patterned array on the bottom of the wells of a 4-Spot-Multi-MSD plate. Standard samples were incubated in the MULTI-SPOT plates as well, and the cytokine (IL-8) binds to its corresponding capture antibody spot. The cytokine level was quantitated on a SECTOR™ Imager using a cytokine-specific Detection Antibody labelled with MSD SULFO-TAG™ reagent.
Test compound titration curves were fitted to a four-parameter sigmoidal curve after normalizing the effect of the test compound to the effect of the positive control (1.5×10^−7 M PEP0005). Rel EC50 denotes the concentration of test compound producing an effect that is midway between the fitted top and bottom.

Where [4] appears, read: 6 h, read-out: HeKa cytokine release (IL-8) Rel EC50 range.

As for `CC1=C[C@]23C(=O)[C@@H](C=C(CO)[C@@H](O)[C@]2(O)[C@H]1OC(=O)c1c(C)cccc1N)[C@H]1[C@@H](C[C@H]3C)C1(C)C` [Compound 335, Ingenol 3-(2-amino-6-methyl-benzoate)], the results for the EC50 in test [1], in test [2] and in test [3] (setting [4]) were less than 150000 nM, less than 20 nM and less than 20 nM, respectively.

Regarding `CC1=C[C@]23C(=O)[C@@H](C=C(CO)[C@@H](O)[C@]2(O)[C@H]1OC(=O)c1ccccc1Nc1ccccc1)[C@H]1[C@@H](C[C@H]3C)C1(C)C` [Compound 336, Ingenol 3-(2-phenylamino-benzoate)], the EC50 (in general, the concentration needed to bring the measured effect to its halfway point) in test [1] is less than 150000 nM; in test [2], less than 20 nM; in test [3] (setting [4]), less than 20 nM.

Turning to `CNc1cccc(C)c1C(=O)O[C@H]1C(C)=C[C@]23C(=O)[C@@H](C=C(CO)[C@@H](O)[C@]12O)[C@H]1[C@@H](C[C@H]3C)C1(C)C` [Compound 339, Ingenol 3-(2-methyl-6-methylamino-benzoate)], the EC50 is less than 150000 nM in test [1], 20 to 100 nM in test [2] and less than 20 nM in test [3] (setting [4]).

With `CC1=C[C@]23C(=O)[C@@H](C=C(CO)[C@@H](O)[C@]2(O)[C@H]1OC(=O)c1c(N)cccc1Cl)[C@H]1[C@@H](C[C@H]3C)C1(C)C` [Compound 340, Ingenol 3-(2-amino-6-chloro-benzoate)], the results for the EC50 in test [1], in test [2] and in test [3] (setting [4]) were less than 150000 nM, less than 20 nM and 20 to 100 nM, respectively.

As for `CC1=C[C@]23C(=O)[C@@H](C=C(CO)[C@@H](O)[C@]2(O)[C@H]1OC(=O)c1c(N)cccc1F)[C@H]1[C@@H](C[C@H]3C)C1(C)C` [Compound 341, Ingenol 3-(2-amino-6-fluoro-benzoate)], the EC50 is less than 150000 nM in test [1], less than 20 nM in test [2] and less than 20 nM in test [3] (setting [4]).

For `CNc1cccc(Cl)c1C(=O)O[C@H]1C(C)=C[C@]23C(=O)[C@@H](C=C(CO)[C@@H](O)[C@]12O)[C@H]1[C@@H](C[C@H]3C)C1(C)C` [Compound 342, Ingenol 3-(2-chloro-6-methylamino-benzoate)], the EC50 was less than 150000 nM in test [1], 20 to 100 nM in test [2] and less than 20 nM in test [3] (setting [4]).

As to `CNc1cccc(F)c1C(=O)O[C@H]1C(C)=C[C@]23C(=O)[C@@H](C=C(CO)[C@@H](O)[C@]12O)[C@H]1[C@@H](C[C@H]3C)C1(C)C` [Compound 343, Ingenol 3-(2-fluoro-6-methylamino-benzoate)], the values for the EC50 in test [1], in test [2] and in test [3] (setting [4]) were less than 150000 nM, less than 20 nM and less than 20 nM, respectively.

Regarding `CC1=C[C@]23C(=O)[C@@H](C=C(CO)[C@@H](O)[C@]2(O)[C@H]1OC(=O)C1=C(C)CCCC1(C)C)[C@H]1[C@@H](C[C@H]3C)C1(C)C` [Compound 345, Ingenol 3-(2,6,6-trimethylcyclohexene-1-carboxylate)], the values for the EC50 in test [1], in test [2] and in test [3] (setting [4]) were less than 150000 nM, less than 20 nM and less than 20 nM, respectively.

`C/C=C(/C)C(=O)O[C@H]1C(C)=C[C@]23C(=O)[C@@H](C=C(CO)[C@@H](O)[C@]12O)[C@H]1[C@@H](C[C@H]3C)C1(C)C` [Ingenol-3-angelate, reference compound]: the concentration giving a half-maximal response (EC50) in test [1] (30 min at 37° C., PrestoBlue, normalized to 4 10^−4 M PEP0005/ingenol mebutate) is 150000 to 350000 nM; in test [2] (40 min incubation at RT, normalized to positive control 5×10^−7 M PEP0005) it was less than 20 nM; in test [3] (6 h at 37° C., normalized to positive control 1.5×10^−7 M PEP0005, read-out: HeKa cytokine release (IL-8) Rel EC50 range), less than 20 nM.
